Source: patent publication US4026891A, “5- Or 6-pyridazinyl-benzimidazoles and salts thereof” (Boehringer Ingelheim GmbH, priority 1974, dated 1977)
Structures can show the parent of a compound that is named as a salt.

Experiments:
[1] = system: mongrel dogs (arterial blood pressure); experiment: hypotensive activity in anesthetized mongrel dogs; assay type: in vivo, dog; details: average of 3 tests
Method: (2) Determination of the hypotensive activity:
The hypotensive activity was determined in mongrel dogs of both sexes (body weight between 19 and 26 kg) under chloralose/urethane (54+ 270 mgm/kg i.v.) and nembutal (10 mgm/kg i.v.) anesthesia. After tracheotomy, the animals were attached to a Harvard artificial respirator using normal air. The arterial blood pressure was measured in the arteria femoralis by a Statham pressure transducer P 23 Dc and registered on a Grass polygraph. The compound under investigation was administered in aqueous solution by intravenous injection into the vena saphena.

[2] = system: isolated, spontaneously beating auricles of the guinea pig; experiment: positive inotropic (cardiotonic) activity on isolated auricles; assay type: cell-based; details: Cavia porcellus, 10^-5 gm/ml, 30° C., average of at least 5 auricles, read-out: Increase in the force of contraction in %
Method: 3. Determination of the positive inotropic (cardiotonic) activity
The positive inotropic activity was determined as the strengthening effect upon the force of contraction of isolated, spontaneously beating auricles of the guinea pig. Freshly isolated auricles were put into a bath of 100 ml of a tyrode solution at a temperature of 30° C. The tyrode solution was infused with carbogen (95% of O2 and 5% of CO2). The spontaneous contractions of the auricles were registered isometrically with a Statham-Force-Displacement-transducer FT 03 C on a Grass polygraph. The auricles were pre-stretched with 1 gm. After an equilibration period of 20-30 minutes the test compound was added at a concentration of 10^-^5 gm/ml.

[3] = system: thrombocyte aggregation in platelet-rich plasma of healthy human donors; experiment: thrombocyte (platelet) aggregation inhibiting activity, method of Born and Cross, collagen-induced; assay type: cell-based; details: 10^-4 mol/l, optical density, read-out: Inhibition in % after addition of 10^-4 mol/l, O.D.
Method: (1) Determination of thrombocyte aggregation inhibiting activity by the method of Born and Cross [see J. Physiol. 170, 397 (1964)]:
The platelet aggregation inhibiting activity was determined in the platelet-rich plasma of healthy human donors. The rate of decline of the optical density of the platelet suspension was measured and recorded photometrically after the addition of commercial collagen containing 1 mgm of collagen fibrils per ml. From the angle of inclination of the density curve, the rate of aggregation was estimated (Vmax). The optical density was taken as the point on the curve where most light was transmitted (O.D.). To provoke maximum aggregation about 0.01 ml of the collagen solution was added to 1 ml of platelet-rich plasma.

Structure (SMILES)	Decrease in blood pressure (figure after the slash) ([1]; 1.0 mgm/kg i.v.)	Decrease in blood pressure (figure before the slash) ([1]; 1.0 mgm/kg i.v.)	activation at 10 µg/mL [2]	inhibition at 100 µM [3]	also measured
Cc1nc2ccc(C3=NNC(=O)CC3)cc2[nH]1 [Compound A, 2-Methyl-5(6)-(3'-oxo-4',5'-dihydro-2'H-6'-pyridazinyl)-benzimidazole hydrochloride]	38 mm Hg	26 mm Hg	30%	100%	Decrease in blood pressure (figure after the slash) ([1]; 0.25 mgm/kg i.v.): 9 mm Hg; Decrease in blood pressure (figure before the slash) ([1]; 0.25 mgm/kg i.v.): 7 mm Hg
COc1ccc(-c2nc3ccc(C4=NNC(=O)CC4)cc3[nH]2)c(OC)c1 [C, 2-(o,p-Dimethoxy-phenyl)-5(6)-(3'-oxo-4',5'-dihydro-2'H-6'-pyridazinyl)-benzimidazole]	44 mm Hg	33 mm Hg	12%		Decrease in blood pressure (figure after the slash) ([1]; 0.25 mgm/kg i.v.): 44 mm Hg; Decrease in blood pressure (figure before the slash) ([1]; 0.25 mgm/kg i.v.): 17 mm Hg
COc1ccc(-c2nc3ccc(C4=NNC(=O)CC4)cc3[nH]2)cc1 [Compound I, 2-(p-Methoxy-phenyl)-5(6)-(3'-oxo-4',5'-dihydro-2'H-6'-pyridazinyl)-benzimidazole]				100%	
Cc1nc2ccc(-c3ccc(N4CCOCC4)nn3)cc2[nH]1 [D, 2-Methyl-5(6)-(3'-morpholino-6'-pyridazinyl)-benzimidazole]				89%	
Cc1nc2ccc(C3=NN(C)C(=O)CC3)cc2[nH]1 [G, 2-Methyl-5(6)-(2'-methyl-3'-oxo-4',5'-dihydro-2'H-6'-pyridazinyl)-benzimidazole hydrochloride]			13%		
COc1ccc(-c2nc3ccc(-c4ccc(=O)[nH]n4)cc3[nH]2)cc1 [K, 2-(p-Methoxy-phenyl)-5(6)-(3'-oxo-2'H-6'-pyridazinyl)-benzimidazole methanesulfonate]			33%		
O=C1CCC(c2ccc3nc(-c4ccccc4F)[nH]c3c2)=NN1 [E, 2-(o-Fluoro-phenyl)-5(6)-(3'-oxo-4',5'-dihydro-2'H-6'-pyridazinyl)-benzimidazole hydrochloride]			15%		
O=C1CCC(c2ccc3nc[nH]c3c2)=NN1 [H, 5(6)-(3'-oxo-4',5'-dihydro-2'H-6'-pyridazinyl)-benzimidazole]				100%	
O=C1CCC(c2ccc3nc(C(F)(F)F)[nH]c3c2)=NN1 [F, 2-trifluoromethyl-5(6)-(3'-oxo-4',5'-dihydro-2'H-6'-pyridazinyl)-benzimidazole]				100%	
Cc1nc2ccc(-c3ccc(=O)[nH]n3)cc2[nH]1 [B, 2-Methyl-5(6)-(3'-oxo-2'H-6'-pyridazinyl)-benzimidazole hydrochloride]	32 mm Hg	33 mm Hg	20%	100%	Decrease in blood pressure (figure after the slash) ([1]; 0.5 mgm/kg i.v.): 25 mm Hg; Decrease in blood pressure (figure before the slash) ([1]; 0.5 mgm/kg i.v.): 18 mm Hg
